Source: patent publication US20200368193A1 (Concert Pharmaceuticals, Inc., priority 2017, published 2020)
Like-named read-outs stand apart in the source and are kept apart here.

How the values were obtained:
[1] = Cortex versus plasma half-life of Compound 100 after 4 days of 100 mg/kg PO dosing (Example 11); type: in vivo, male Sprague-Dawley rats; conditions: male, Sprague-Dawley, rat, 100 mg/kg PO once per day for 4 days
Procedure: After 4 days, tissues from perfused brain and plasma were collected and analyzed by LC-MS at 24 hours (group 1), 72 hours (group 2) and 120 hours (group 3) after dosing.

rats = experiment: Nephrotoxicity comparison at doses from 150 mg/kg to 750 mg/kg (dose escalation, FIGS. 7-10); type: in vivo; conditions: for changes in BUN or creatinine: PO doses from 150 mg/kg to 750 mg/kg
[2] = Brain distribution of Compound 100 after a single 100 mg/kg PO dose (Example 10); type: in vivo, male Sprague-Dawley rats; conditions: male, Sprague-Dawley, rat, mean
Procedure: The distribution profile of Compound 100 was investigated in male Sprague-Dawley rats. […] At 24 hours after dosing, tissues from perfused brain and plasma were collected and analyzed by LC-MS.

[3] = Plasma, hippocampus and cortex concentration of Compound 100 after a 30 mg/kg PO dose (Example 1); type: in vivo, male Sprague Dawley rats; conditions: male, Sprague-Dawley, rat, mean
Procedure: The mean plasma, hippocampus, and cortex concentrations at 1 hour were 19200 ng/mL, 674 ng/g, and 754 ng/g, respectively. The mean plasma, hippocampus, and cortex concentrations at 6 hours were 1780 ng/mL, 1385 ng/g, and 936 ng/g, respectively.

[4] = Pharmacokinetic profile of Compound 100 and non-deuterated D-serine after 150 mg/kg PO doses (Example 3); type: in vivo, male Sprague-Dawley rats; conditions: for concentration at 4 h / concentration at 8 h / concentration at 24 h / AUC(0-inf) / Cmax / Tmax: male, Sprague-Dawley, rat; for concentration at 4 h / concentration at 8 h / concentration at 24 h: po
Excerpt: (§1) The pharmacokinetic profile of Compound 100 was investigated in male Sprague-Dawley rats compared with that of non-deuterated D-serine. […] Plasma was collected and analyzed for Compound 100 and non-deuterated D-Serine. Additional blood was collected and analyzed for the full clinical chemistry profile.

Male Sprague-Dawley Rats [5] = experiment: Nephrotoxicity of Compound 100 and non-deuterated D-serine at 150 mg/kg PO (Example 3); type: in vivo
Excerpt: as §1

[6] = Pharmacokinetics of deuterated and non-deuterated D-serine, PO 10 mg/kg (Example 5); type: in vivo, male Sprague Dawley rats; conditions: male, Sprague Dawley, rat, plasma, 0.5% Methylcellulose
Procedure: Three rats were used for each group. Blood was collected at the following time points: for IV dosing: pre-dose, 0.05, 0.167, 0.5, 1, 2, 4, 6, 8 and 12 hours post-dose; for PO dosing: pre-dose, 0.25, 0.5, 1, 2, 4, 6, 8 and 12 hours post-dose PO. Urine was collected at pre-dose (minimum 12 hours), 0-6, 6-12 and 12-24 hours. Plasma samples were analyzed and quantified for dosed compound LC-MS/MS.

[7] = target: T1, human NMDAR subunits GluN1 and GluN2A (Homo sapiens, UniProt Q05586); experiment: NMDA receptor activation in automated patch clamp system (ScreenPatch); type: cell-based; conditions: HEK293 cells, 0.003 to 10 μM, Compound 100 versus d-serine
T1 construct: expressed in transfected cells; host or cells: HEK293
Procedure: Peak current and steady state current were measured. The activity at the NMDA receptor was indistinguishable for the two compounds.

[8] = Pharmacokinetics of non-deuterated D-serine after a 300 mg/kg PO dose (Example 2); type: in vivo, Male Sprague-Dawley Rats; conditions: male, Sprague-Dawley, rat; for concentration at 1 h: oral, 300 mg/kg, 1 hour (in Example 2); for concentration at 1 h / concentration at 8 h: mean
Procedure: (§2) The hippocampus, cortex and plasma were collected and analyzed. Additional blood was collected and were analyzed for the full clinical chemistry profile. Urine was also collected and examined for glucose and total protein. […] The mean plasma, hippocampus, and cortex concentration at 1 hour are 19200 ng/mL, 674 ng/g, and 754 ng/g; respectively. The mean plasma, hippocampus, and cortex concentrations at 8 hours were 11250 ng/mL, 17725 ng/g, and 11875 ng/g, respectively. […] Blood urea nitrogen and creatinine levels were elevated.

Male Sprague-Dawley Rats [9] = experiment: Nephrotoxicity dose response of non-deuterated D-serine, 30-300 mg/kg PO (Example 4); type: in vivo; conditions: 24 hr samples at the 150 and 300 mg/kg doses, compared to control and reference values
Excerpt: (§3) The pharmacokinetic profile of non-deuterated D-serine was investigated in male Sprague-Dawley rats. […] Plasma was collected and analyzed for the non-deuterated D-serine. Additional blood was collected and analyzed for the full clinical chemistry profile.

[10] = Pharmacokinetics dose response of non-deuterated D-serine, 30-300 mg/kg PO (Example 4); type: in vivo, male Sprague-Dawley rats; conditions: plasma; for Cmax / AUC(0-inf): (CV %)
Excerpt: as §3

Male Sprague-Dawley Rats [11] = experiment: Nephrotoxicity of non-deuterated D-serine at 300 mg/kg PO (Example 2); type: in vivo
Procedure: as §2

[12] = dose escalation 150 mg/kg to 750 mg/kg
[13] = cortex, read-out: Cortex concentration
[14] = hippocampus, read-out: Hippocampus concentration
[15] = plasma, read-out: Plasma concentration
[16] = cortex, 150 mg/kg, mean, read-out: Cortex concentration
[17] = hippocampus, 150 mg/kg, mean, read-out: Hippocampus concentration
[18] = plasma, 150 mg/kg, mean, read-out: Plasma concentration
[19] = serum, D-serine at 24 hr, Compound 100 at 4, 8, and 24 hours

SMILES: [2H][C@@](N)(CO)C(=O)O [Compound 100, (2R)-2-amino-2-deutero-3-hydroxy-propanoic acid]
- half-life ([1]; cortex, read-out: half-life (T1/2) in the cortex (converted)): ~48 h
- half-life ([1]; plasma, read-out: plasma T1/2): < 12 h
- changes in BUN or creatinine (rats): minimal changes
- exposure as measured by AUC and Cmax, versus non-deuterated D-serine (rats; [12]): greater
- gross signs of nephrotoxicity (rats; [12]): not
- concentration at 24 h ([2]; brain stem, perfused brain, read-out: brain stem concentration): 721 ng/g
- concentration at 24 h ([2]; cerebellum, perfused brain, read-out: cerebellum concentration): 290 ng/g
- concentration at 24 h ([2]; cortex, perfused brain, read-out: cortex concentration): 4660 ng/g
- concentration at 24 h ([2]; plasma, read-out: plasma concentration): 880 ng/mL
- concentration at 1 h [3, 13]: 754 ng/g
- concentration at 6 h [3, 13]: 936 ng/g
- concentration at 1 h [3, 14]: 674 ng/g
- concentration at 6 h [3, 14]: 1380 ng/g
- concentration at 1 h [3, 15]: 19200 ng/mL
- concentration at 6 h [3, 15]: 1780 ng/mL
- concentration at 4 h [4, 16]: 5070 ng/g
- concentration at 8 h [4, 16]: 4040 ng/g
- concentration at 24 h ([4]; cortex, 150 mg/kg, mean, 24 hr, read-out: Cortex concentration): 2420 ng/g
- concentration at 4 h [4, 17]: 6160 ng/g
- concentration at 8 h [4, 17]: 4340 ng/g
- concentration at 24 h ([4]; hippocampus, 150 mg/kg, mean, 24 hr, read-out: Hippocampus concentration): 4200 ng/g
- AUC(0-inf) ([4]; plasma): 383 µg·h/mL
- Cmax ([4]; plasma): 186000 ng/mL
- Tmax ([4]; plasma): 40 min
- concentration at 4 h [4, 18]: 23300 ng/mL
- concentration at 8 h [4, 18]: 2040 ng/mL
- concentration at 24 h ([4]; plasma, 150 mg/kg, mean, 24 hr, read-out: Plasma concentration): 711 ng/mL
- Hippocampus concentration ([4]; mean, 24 hr, 150 mg/kg): 4220 ng/g
- levels of biomarkers of nephrotoxicity (Male Sprague-Dawley Rats [5]): did not increase
- AUC(0-inf) [6]: 21.5 µg·h/mL
- Cmax [6]: 11400 ng/mL
- Tmax [6]: 25 min
- half-life [6]: 160 min
- activity at the NMDA receptor (peak current and steady state current) [7]: indistinguishable

SMILES: N[C@H](CO)C(=O)O [Non-deuterated D-Serine, D-serine]
- concentration at 1 h [8, 13]: 754 ng/g
- concentration at 8 h ([8]; cortex, 300 mg/kg PO, read-out: Cortex concentration): 11900 ng/g
- concentration at 1 h [8, 14]: 674 ng/g
- concentration at 8 h ([8]; hippocampus, 300 mg/kg PO, read-out: Hippocampus concentration): 17700 ng/g
- concentration at 1 h [8, 15]: 19200 ng/mL
- concentration at 8 h ([8]; plasma, 300 mg/kg PO, endogenous level subtracted, read-out: Plasma concentration): 11200 ng/mL
- AUC(0-inf) ([8]; plasma, 300 mg/kg PO): 500 µg·h/mL
- Cmax ([8]; plasma, 300 mg/kg PO): 268000 ng/mL
- Tmax ([8]; plasma, 300 mg/kg PO): 30 min
- half-life ([8]; plasma, 300 mg/kg PO): 218 min
- creatine level (Male Sprague-Dawley Rats [9]): Elevated levels
- gamma glutamyl transferase (GGT) level (Male Sprague-Dawley Rats [9]): Elevated levels
- urea nitrogen level (Male Sprague-Dawley Rats [9]): Elevated levels
- changes in BUN or creatinine (rats): increasingly elevated levels
- gross signs of nephrotoxicity (rats; [12]): observed
- Tmax ([10]; male, Sprague-Dawley, rat, po, 30 mg/kg, 30 mg/kg PO): 30 min
- Cmax ([10]; male, Sprague-Dawley, rat, po, 30 mg/kg, 30 mg/kg PO, read-out: Cmax): 24300 ng/mL
- Tmax ([10]; male, Sprague-Dawley, rat, po, 75 mg/kg, 75 mg/kg PO): 30 min
- Cmax ([10]; male, Sprague-Dawley, rat, po, 75 mg/kg, 75 mg/kg PO, read-out: Cmax): 54300 ng/mL
- Tmax ([10]; male, Sprague-Dawley, rat, po, 100 mg/kg, 100 mg/kg PO): 30 min
- Cmax ([10]; male, Sprague-Dawley, rat, po, 100 mg/kg, 100 mg/kg PO, read-out: Cmax): 96100 ng/mL
- Tmax ([10]; male, Sprague-Dawley, rat, po, 150 mg/kg, 150 mg/kg PO): 18 min
- Cmax ([10]; male, Sprague-Dawley, rat, po, 150 mg/kg, 150 mg/kg PO, read-out: Cmax): 180000 ng/mL
- Tmax ([10]; male, Sprague-Dawley, rat, po, 300 mg/kg, 300 mg/kg PO): 30 min
- Cmax ([10]; male, Sprague-Dawley, rat, po, 300 mg/kg, 300 mg/kg PO, read-out: Cmax): 216000 ng/mL
- Tmax ([10]; male, Sprague-Dawley, rat, po, 300 mg/kg, all doses 30, 75, 100, 150, and 300 mg/kg PO): 18 to 30 min
- AUC(0-inf) ([10]; male, Sprague-Dawley, rat, 30 mg/kg PO): 50.6 µg·h/mL
- AUC(0-inf) ([10]; male, Sprague-Dawley, rat, 75 mg/kg PO): 148 µg·h/mL
- AUC(0-inf) ([10]; male, Sprague-Dawley, rat, 100 mg/kg PO): 246 µg·h/mL
- AUC(0-inf) ([10]; male, Sprague-Dawley, rat, 150 mg/kg PO): 349 µg·h/mL
- AUC(0-inf) ([10]; male, Sprague-Dawley, rat, 300 mg/kg PO): 911 µg·h/mL
- Cmax ([10]; 300 mg/kg PO, 300 mg/kg): 261000 (32.3%) ng/mL
- Blood urea nitrogen level (Male Sprague-Dawley Rats [11]): elevated
- creatinine level (Male Sprague-Dawley Rats [11]): elevated
- glucose in urine (Male Sprague-Dawley Rats [11]): presence of glucose was observed
- AUC(0-inf) ([4]; plasma): 349 µg·h/mL
- Cmax ([4]; plasma): 180000 ng/mL
- Tmax ([4]; plasma): 20 min
- levels of biomarkers of nephrotoxicity (Male Sprague-Dawley Rats [5]): caused an increase
- blood urea nitrogen (BUN) level (Male Sprague-Dawley Rats [5]; serum, D-serine at 8 hr and 24 hr, Compound 100 at 4, 8, and 24 hours): Elevated levels
- creatinine level (Male Sprague-Dawley Rats [5]; [19]): Elevated levels
- gamma glutamyl transferase (GGT) level (Male Sprague-Dawley Rats [5]; [19]): Elevated levels
- AUC(0-inf) [6]: 13.2 µg·h/mL
- Cmax [6]: 8780 ng/mL
- Tmax [6]: 25 min
- half-life [6]: 106 min
- activity at the NMDA receptor (peak current and steady state current) [7]: indistinguishable
